Test system: PKLR
Experiment: PKLR protein level by western blot in HepG2, 2-day drug treatment
Format: cell-based
Settings: HepG2, two days of treatment, dosages per FIG. 5, P<0.05, FIG. 2A
Protocol: WT HepG2 was included in this study and cultured by Roswell Park Memorial Institute (RPMI, […], Sigma Aldrich) 1640 Medium with 10% fetal bovine serum (FBS) and 1% penicillin-streptomycin (PS). To induce a steatosis model into WT HepG2 cells, high glucose Dulbecco's Modified Eagle Media (DMEM, […]/[…], Sigma-Aldrich) containing 10% FBS and 1% PS was used as medium for one week, together with 10 μg/mL insulin and 10 μM T0901317. All of cells were incubated in the incubator with 5% CO2 and 37° C. (Thermo […]). Fresh medium was provided every two days. As for drug-screening, different numbers of HepG2 cells were seeded for distinct experiments. More in details, 40,000 cells and 500,000 cells were used for 2-day-drug treatment in 96-well-plate and 6-well plate, respectively, while 80,000 cells and 300,000 cells were used for one-week drug treatment in 96-well plate and 6-well plate, respectively. […] Fresh medium was provided every two days. Protein content levels were detected by western blot. After the respective treatment of drugs, the cell pellets were lysed in cell lytic M, followed by protein extraction from supernatant (10 min, 13,000r/min centrifuge). Extracted cell lysate was stored in -20° C. Proteins were quantified through Bovine albumin serum (BAS) standard curve with protein assay dye reagent (BIO-RAD). The proteins were separated by SDS-PAGE with 100v in 90 min by mini-protein TGX precast gels (4-15%, 15 wells, 15 μl/well, BIO-RAD), and then transfer to Mini PVDF transfer package through transfer system (Transfer-Turbo, BIO-RAD). After 30 min blocking with 5% skim milk in cold room (4° C.) and washing with TBST, membrane was cut by the size of interested proteins. Primary antibodies were added into the corresponding membrane sections for overnight binding. Then the membranes were washed with TBST, and the secondary antibodies were incubated for 1 h in cold room. The following antibody were used: (Goat pAb to Rb lg, ab205718, abcam; Rb pAb to beta-actin, ab8227, abcam; […]; Rb pAb to fatty acid synthase, ab99539, abcam). The bindings were imaged by immunostaining and machine (ImageQuant LAS 500). All antibodies were purchased from Abcam online, and βactin was used as global normalized protein. After measurement, the strength of signal for each protein was quantified by ImageJ. The background noise was removed, and all results were normalized by the levels of β-actin. To determine the inhibitory effects of these drugs on the expression level of PKLR, HepG2 was selected as the in vitro model for coherence. […] HepG2 cells were treated with these drugs for two days with different dosages due to their potential cellular toxicities (FIG. 5), and the PKLR protein level was the measured by western blotting. The level of protein expression of PKLR of the drug-treated groups was compared to that of the Ctrl group after normalizing with β-actin.

Structure (SMILES) | protein expression of PKLR vs Ctrl, normalized with β-actin
N#Cc1c(NC(=O)c2cccc3ccccc23)sc2c1CCCC2 [JNK-IN-5A, N-(3-cyano-4,5,6,7-tetrahydrobenzo [b]thien-2-yl)-1-naphthalenecarboxamide] | significantly down-regulated
O=C(Nc1cccc(Nc2ncc(Br)c(NCCc3cnc[nH]3)n2)c1)N1CCCC1 [BX-912, N-[3-[[5-bromo-4-[[2-(1H-imidazol-5-yl)ethyl]amino]-2-pyrimidinyl]amino]phenyl]-1-pyrrolidinecarboxamide] | significantly down-regulated
